{
  "source": "patent US20260007133A1",
  "about": "“HERBICIDAL COMPOSITION COMPRISING AZINE COMPOUNDS” (BASF SE, priority 2022, published 2026)",
  "format_in_all_cases": "in vivo",
  "key": {"[1]": {"test_system": "Ambrosia artemisiifolia", "assay": "Greenhouse pre-emergence (PRE) herbicidal test on AMBEL", "conditions": "Ambrosia artemisiifolia, pre-emergence; for inhibition at 4 g/ha: use rate 4 gai/ha; for inhibition at 8 g/ha: use rate 8 gai/ha"}, "[2]": {"test_system": "Amaranthus retroflexus", "assay": "Greenhouse pre-emergence (PRE) herbicidal test on AMARE", "conditions": "Amaranthus retroflexus, pre-emergence", "summary_of_the_method": "(§1)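 Pre-emergence greenhouse assay: sown loamy-sand pots (humus approx. 3.0%) were kept under transparent hoods until rooting, then grown at species-appropriate 10-25° C or 20-35° C. Response ratings of 0 (no damage) to 100 (no plants emerged) were recorded 20 days after application.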"}, "[3]": {"test_system": "Alopecurus myosuroides", "assay": "Greenhouse pre-emergence (PRE) herbicidal test on ALOMY", "summary_of_the_method": "as §1"}, "[4]": {"test_system": "Euphorbia heterophylla", "assay": "Greenhouse pre-emergence (PRE) herbicidal test on EPHHL", "conditions": "Euphorbia heterophylla, pre-emergence", "summary_of_the_method": "as §1"}, "[5]": {"test_system": "Geranium pusillum", "assay": "Greenhouse pre-emergence (PRE) herbicidal test on GERPU", "conditions": "Geranium pusillum, pre-emergence, use rate 8 gai/ha", "summary_of_the_method": "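Herbicidal effect is scored from 0 (no damage) to 100 (no emergence or above-ground parts destroyed), 20 days after treatment. Application is pre-emergent onto sown pots, with components given as a 5% by weight emulsion concentrate in the spray liquor.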"}, "[6]": {"test_system": "Lolium multiflorum", "assay": "Greenhouse pre-emergence (PRE) herbicidal test on LOLMU", "summary_of_the_method": "as §1"}},
  "note": "Read-outs that look alike come from different tables or passages of the source.",
  "data": [
    {"molecule": "COc1c(Br)cc(F)c(F)c1Nc1nc(N)nc(C(C)(C)F)n1", "note": "[Compound I-2]", "values": [
      {"measurement": "inhibition at 2 g/ha", "setting": "[1]; 240 h, PRE, use rate 2 gai/ha, 10 DAT, read-out: % activity", "result": 20, "unit": "%"},
      {"measurement": "inhibition at 4 g/ha", "setting": "[1]; 240 h, PRE, 10 DAT", "result": 20, "unit": "%"},
      {"measurement": "inhibition at 8 g/ha", "setting": "[1]; 240 h, PRE, 10 DAT, read-out: % activity", "result": 35, "unit": "%"},
      {"measurement": "inhibition at 16 g/ha", "setting": "[1]; 240 h, PRE, use rate 16 gai/ha, 10 DAT", "result": 50, "unit": "%"},
      {"measurement": "pest or weed control at 8 g/ha", "setting": "[1]; 432 h, PRE, AMBEL, I-2 solo 8 gai/ha, 18 DAT", "result": 70, "unit": "%"},
      {"measurement": "inhibition at 2 g/ha", "setting": "[1]; 480 h, AMBEL PRE, 20 DAT, use rate 2 gai/ha, read-out: % activity", "result": 35, "unit": "%"},
      {"measurement": "inhibition at 8 g/ha", "setting": "[1]; 480 h, AMBEL PRE, 20 DAT, read-out: % activity", "result": 90, "unit": "%"},
      {"measurement": "pest or weed control at 8 g/ha", "setting": "[1]; 480 h, PRE, 8 gai/ha, 20 DAT", "result": 90, "unit": "%"},
      {"measurement": "inhibition at 2 g/ha", "setting": "[1]; 480 h, PRE, AMBEL, 2 gai/ha, 20 DAT, read-out: % activity solo application", "result": 0, "unit": "%"},
      {"measurement": "inhibition at 2 g/ha", "setting": "[1]; 480 h, PRE, AMBEL, use rate 2 gai/ha, 20 DAT, read-out: solo application % activity", "result": 0, "unit": "%"},
      {"measurement": "inhibition at 8 g/ha", "setting": "[1]; 480 h, PRE, 20 DAT, read-out: % activity", "result": 80, "unit": "%"},
      {"measurement": "inhibition at 2 g/ha", "setting": "[1]; AMBEL PRE, use rate 2 gai/ha, read-out: % activity", "result": 30, "unit": "%"},
      {"measurement": "inhibition at 4 g/ha", "setting": "[1]; PRE, AMBEL", "result": 20, "unit": "%"},
      {"measurement": "pest or weed control at 2 g/ha", "setting": "[2]; 432 h, PRE, AMARE, I-2 solo 2 gai/ha, 18 DAT", "result": 80, "unit": "%"},
      {"measurement": "inhibition at 2 g/ha", "setting": "[2]; 480 h, AMARE PRE, 20 DAT, use rate 2 gai/ha, read-out: % activity", "result": 70, "unit": "%"},
      {"measurement": "pest or weed control at 2 g/ha", "setting": "[2]; 480 h, PRE, 2 gai/ha, 20 DAT", "result": 70, "unit": "%"},
      {"measurement": "inhibition at 2 g/ha", "setting": "[2]; 480 h, PRE, AMARE, 2 gai/ha, 20 DAT, read-out: % activity solo application", "result": 70, "unit": "%"},
      {"measurement": "inhibition at 2 g/ha", "setting": "[2]; 480 h, PRE, AMARE, use rate 2 gai/ha, 20 DAT, read-out: solo application % activity", "result": 70, "unit": "%"},
      {"measurement": "% activity", "setting": "[3]; ALOMY PRE, use rate 8 gai/ha", "result": 85, "unit": "%"},
      {"measurement": "pest or weed control at 2 g/ha", "setting": "[3]; Alopecurus myosuroides, pre-emergence, 432 h, PRE, ALOMY, I-2 solo 2 gai/ha, 18 DAT, read-out: % activity", "result": 5, "unit": "%"},
      {"measurement": "pest or weed control at 8 g/ha", "setting": "[3]; Alopecurus myosuroides, pre-emergence, 432 h, PRE, ALOMY, I-2 solo 8 gai/ha, 18 DAT", "result": 75, "unit": "%"},
      {"measurement": "pest or weed control at 8 g/ha", "setting": "[3]; Alopecurus myosuroides, pre-emergence, 480 h, PRE, 8 gai/ha, 20 DAT", "result": 5, "unit": "%"},
      {"measurement": "inhibition at 2 g/ha", "setting": "[3]; Alopecurus myosuroides, pre-emergence, 480 h, PRE, ALOMY, 2 gai/ha, 20 DAT, read-out: % activity solo application", "result": 20, "unit": "%"},
      {"measurement": "inhibition at 8 g/ha", "setting": "[3]; Alopecurus myosuroides, pre-emergence, 480 h, PRE, ALOMY, 8 gai/ha, 20 DAT, read-out: % activity solo application", "result": 75, "unit": "%"},
      {"measurement": "inhibition at 8 g/ha", "setting": "[3]; Alopecurus myosuroides, pre-emergence, 480 h, PRE, ALOMY, use rate 8 gai/ha, 20 DAT, read-out: solo application % activity", "result": 75, "unit": "%"},
      {"measurement": "inhibition at 16 g/ha", "setting": "[3]; Alopecurus myosuroides, pre-emergence, 480 h, PRE, ALOMY, use rate 16 gai/ha, 20 DAT", "result": 95, "unit": "%"},
      {"measurement": "inhibition at 2 g/ha", "setting": "[3]; Alopecurus myosuroides, pre-emergence, 480 h, PRE, use rate 2 gai/ha, 20 DAT, read-out: % activity", "result": 40, "unit": "%"},
      {"measurement": "inhibition at 8 g/ha", "setting": "[3]; Alopecurus myosuroides, pre-emergence, ALOMY PRE, use rate 8 gai/ha, read-out: % activity", "result": 70, "unit": "%"},
      {"measurement": "inhibition at 2 g/ha", "setting": "[3]; Alopecurus myosuroides, pre-emergence, PRE, ALOMY, use rate 2 gai/ha, read-out: % activity", "result": 20, "unit": "%"},
      {"measurement": "pest or weed control at 2 g/ha", "setting": "[4]; 432 h, PRE, EPHHL, I-2 solo 2 gai/ha, 18 DAT", "result": 10, "unit": "%"},
      {"measurement": "pest or weed control at 8 g/ha", "setting": "[4]; 432 h, PRE, EPHHL, I-2 solo 8 gai/ha, 18 DAT", "result": 35, "unit": "%"},
      {"measurement": "inhibition at 8 g/ha", "setting": "[4]; 480 h, EPHHL PRE, 20 DAT, use rate 8 gai/ha, read-out: % activity", "result": 10, "unit": "%"},
      {"measurement": "pest or weed control at 2 g/ha", "setting": "[4]; 480 h, PRE, 2 gai/ha, 20 DAT", "result": 10, "unit": "%"},
      {"measurement": "pest or weed control at 8 g/ha", "setting": "[4]; 480 h, PRE, 8 gai/ha, 20 DAT", "result": 10, "unit": "%"},
      {"measurement": "inhibition at 2 g/ha", "setting": "[4]; 480 h, PRE, EPHHL, 2 gai/ha, 20 DAT, read-out: % activity solo application", "result": 0, "unit": "%"},
      {"measurement": "inhibition at 8 g/ha", "setting": "[4]; 480 h, PRE, EPHHL, 8 gai/ha, 20 DAT, read-out: % activity solo application", "result": 15, "unit": "%"},
      {"measurement": "inhibition at 2 g/ha", "setting": "[4]; 480 h, PRE, EPHHL, use rate 2 gai/ha, 20 DAT, read-out: solo application % activity", "result": 0, "unit": "%"},
      {"measurement": "inhibition at 8 g/ha", "setting": "[4]; 480 h, PRE, EPHHL, use rate 8 gai/ha, 20 DAT, read-out: solo application % activity", "result": 15, "unit": "%"},
      {"measurement": "inhibition at 8 g/ha", "setting": "[5]; 480 h, PRE, GERPU, 20 DAT", "result": 80, "unit": "%"},
      {"measurement": "inhibition at 8 g/ha", "setting": "[5]; GERPU PRE", "result": 0, "unit": "%"},
      {"measurement": "inhibition at 8 g/ha", "setting": "[5]; PRE, GERPU", "result": 0, "unit": "%"},
      {"measurement": "% activity", "setting": "[6]; LOLMU PRE, use rate 2 gai/ha", "result": 30, "unit": "%"},
      {"measurement": "pest or weed control at 2 g/ha", "setting": "[6]; Lolium multiflorum, pre-emergence, 432 h, PRE, LOLMU, I-2 solo 2 gai/ha, 18 DAT, read-out: % activity", "result": 0, "unit": "%"},
      {"measurement": "pest or weed control at 8 g/ha", "setting": "[6]; Lolium multiflorum, pre-emergence, 432 h, PRE, LOLMU, I-2 solo 8 gai/ha, 18 DAT", "result": 30, "unit": "%"},
      {"measurement": "inhibition at 2 g/ha", "setting": "[6]; Lolium multiflorum, pre-emergence, 480 h, LOLMU PRE, 20 DAT, use rate 2 gai/ha, read-out: % activity", "result": 10, "unit": "%"},
      {"measurement": "inhibition at 8 g/ha", "setting": "[6]; Lolium multiflorum, pre-emergence, 480 h, LOLMU PRE, 20 DAT, use rate 8 gai/ha, read-out: % activity", "result": 15, "unit": "%"},
      {"measurement": "pest or weed control at 2 g/ha", "setting": "[6]; Lolium multiflorum, pre-emergence, 480 h, PRE, 2 gai/ha, 20 DAT, read-out: % activity", "result": 10, "unit": "%"},
      {"measurement": "inhibition at 2 g/ha", "setting": "[6]; Lolium multiflorum, pre-emergence, 480 h, PRE, LOLMU, 2 gai/ha, 20 DAT, read-out: % activity solo application", "result": 15, "unit": "%"},
      {"measurement": "inhibition at 8 g/ha", "setting": "[6]; Lolium multiflorum, pre-emergence, 480 h, PRE, LOLMU, 8 gai/ha, 20 DAT, read-out: % activity solo application", "result": 90, "unit": "%"}
    ]}
  ]
}
